Measured values from PMC5000766, “Inhibitory Effect of 2,3,5,6-Tetrafluoro-4-[4-(aryl)-1H-1,2,3-triazol-1-yl]benzenesulfonamide Derivatives on HIV Reverse Transcriptase Associated RNase H Activities” (International Journal of Molecular Sciences, 2016).

Legend:
[1] = biological target: T1, HIV-1 RT-associated RNase H (Human immunodeficiency virus type 1 group M subtype B, UniProt P04585); assay: HIV-1 RNase H polymerase-independent cleavage assay; format: biochemical; conditions: compound concentration required to inhibit the HIV-1 RNase H activity by 50%; recombinant HIV-1 RT
T1 construct: The recombinant HIV-1 RT protein; His tag; made in house; host or cells: E. coli strain M15

[2] = tested on: human MT-4 cells; assay: Cellular cytotoxicity in MT-4 cells; conditions: preliminary finding

SMILES	IC50 [1] [µM]	melting point [°C]	cellular cytotoxicity [2] [µM]
NS(=O)(=O)c1ccc(-n2cc(CO)nn2)cc1 [Compound 9b]	> 100	195 to 197	
NCc1cn(-c2ccc(S(N)(=O)=O)cc2)nn1 [Compound 9a]	> 100		
NS(=O)(=O)c1ccc(-n2cc(-c3ccccc3)nn2)cc1 [Compound 9c]	> 100	260 to 261	
CCOC(=O)C(=O)CC(=O)/C=C/c1cccn1Cc1ccccc1Cl [RDS1759, reference compound]	7 ± 1.5		
CCCCCc1ccc(-c2cn(-c3ccc(S(N)(=O)=O)cc3)nn2)cc1 [Compound 9d]		253 to 256	
NS(=O)(=O)c1c(F)c(F)c(-n2cc(CO)nn2)c(F)c1F [Compound 10b]		133 to 134	
CCCCCc1ccc(-c2cn(-c3c(F)c(F)c(S(N)(=O)=O)c(F)c3F)nn2)cc1 [Compound 10d]		197 to 198	> 7
